Measured values from PubChem BioAssay AID1963873 (Molecular Pharmacology Branch, DTP, NCI, 2024).

Test system: 276233-004-R-J1-PDC KRAS spheroids with HUVEC/MSC, viability
Experiment: Anticancer human tumor 276233-004-R-J1-PDC patient-derived colon adenocarcinoma cell line growth inhibition [KRAS2]
Settings: for viability, T/C: stronger effect = lower value
Description: Multicellular complex tumor spheroid response to RAS pathway inhibitors in combination with a targeted agents in patient-derived cell lines with oncogenic KRAS variants from multiple cancer types
A high-throughput screen of multi-cell type tumor spheroids was designed to identify active combinations of targeted small molecules and KRAS pathway inhibitors. Complex spheroids include a stromal component modeled by human endothelial cells (HUVEC) and fibroblasts modeled by human mesenchymal stem cells (MSCs). The concentration ranges selected for each drug and investigational agent were based upon clinically achievable concentrations if the clinical Cmax of the agent was known.
Compounds. The drugs and investigational agents: BI-3406 (NSC825286), BAY-293 (NSC824723), batoprotafib (TNO155; NSC825523), sotorasib (AMG 510; NSC818433), MRTX1257 (NSC819558), elimusertib (BAY 1895344; NSC800525), molibresib (GSK525762; NSC774829), temuterkib (LY3214996; NSC803410), venetoclax (NSC766270), alisertib (NSC759677), olaparib (NSC753686), talazoparib (NSC767125), erdafitinib (NSC781556), ipatasertib (NSC767898), cabozantinib (NSC761068), nintedanib (NSC756659), abemaciclib (NSC768073), docetaxel (NSC628503), trametinib (NSC758246), and sapanisertib (NSC764658) were obtained from the National Cancer Institute (NCI) Developmental Therapeutics Program Chemical Repository. The FDA-approved anticancer drug set is available from the Developmental Therapeutics Program. […] The stock solutions were prepared in dimethyl sulfoxide (DMSO, Sigma-Aldrich, St. Louis, MO, cat. D2650) at 800-fold the tested concentration and stored at -70 degrees C prior to their use. All drugs and investigational agents were tested over a range starting from a high concentration at or near the clinical Cmax and decreasing in half-log increments. If the clinical Cmax for an agent had not been determined, the highest concentration tested was 10 microM.
Cell Culture. All cells were maintained in an incubator at 37 degrees C and 5% CO2 with 95% humidity. The PDC lines were cultured according to standard operating procedures established by the NCI PDMR (https://pdmr.cancer.gov/sops/default.htm). Briefly, all PDCs were thawed and cultured in Matrigel-coated flasks prepared with a working solution of 1X Ham's F-12 nutrient mix, without supplementation (Invitrogen, Waltham, MA, cat. 11765054), 100 U/mL penicillin-streptomycin (Invitrogen, cat. 15140122), and 2.5% Matrigel (Corning Inc., Corning, NY, cat. 354248) for the first three passages. All PDCs were cultured in complete DMEM/F-12 media containing advanced DMEM/F-12 (Invitrogen, cat. 12634028), 4.9% defined fetal bovine serum, heat inactivated (HyClone Laboratories Inc., Logan, UT, cat. SH30070.03HI), 389 ng/mL hydrocortisone (Sigma-Aldrich, cat. H4001), 9.7 ng/mL human EGF recombinant protein (Invitrogen, cat. PHG0313), 23.4 microg/mL adenine (Sigma-Aldrich, cat. A2786), 97.3 U/mL penicillin-streptomycin (Invitrogen, cat. 15140122), 1.9 mM L-glutamine (Invitrogen, cat. 25030081), and 9.7 microM Y-27632 dihydrochloride (Tocris Bioscience, Bristol, United Kingdom, cat. 1254). The PDCs were cultured in complete DMEM/F12 media without 9.7 microM Y-27632 dihydrochloride for at least two passages prior to the screen. The established cell line HOP-62 was cultured in RPMI 1640 medium, HEPES (Invitrogen, cat. 22400105) with 10% defined fetal bovine serum (HyClone Laboratories Inc., cat. SH30070.03) and 2 mM L-glutamine (Invitrogen, cat. 25030081). The pooled donor HUVEC were cultured in endothelial cell growth medium 2 (PromoCell, Heidelberg, Germany, cat. C-22011) and the hMSC were cultured in mesenchymal stem cell growth medium 2 (PromoCell, cat. C-28009). For all experiments, HUVEC and hMSC were used at passages </=5, while the malignant cell lines were used at passages </=15. […]

[1] = curve of first compound, second compound 0.1 µM
[2] = curve of first compound, second compound 0.316 µM
[3] = curve of first compound, second compound 1 µM
[4] = curve of first compound, second compound 3.16 µM
[5] = second compound 0.1 µM, first compound 0.0316 µM
[6] = second compound 0.1 µM, first compound 0.1 µM
[7] = second compound 0.316 µM, first compound 0.0316 µM
[8] = second compound 0.316 µM, first compound 0.1 µM
[9] = second compound 1 µM, first compound 0.0316 µM
[10] = second compound 1 µM, first compound 0.1 µM
[11] = second compound 3.16 µM, first compound 0.0316 µM
[12] = second compound 3.16 µM, first compound 0.1 µM
[13] = curve of first compound, second compound 10 µM
[14] = second compound 0.1 µM, first compound 0.316 µM
[15] = second compound 0.1 µM, first compound 1 µM
[16] = second compound 0.1 µM, first compound 3.16 µM
[17] = second compound 0.1 µM, first compound 10 µM
[18] = second compound 0.316 µM, first compound 0.316 µM
[19] = second compound 0.316 µM, first compound 1 µM
[20] = second compound 0.316 µM, first compound 3.16 µM
[21] = second compound 0.316 µM, first compound 10 µM
[22] = second compound 1 µM, first compound 0.316 µM
[23] = second compound 1 µM, first compound 1 µM
[24] = second compound 1 µM, first compound 3.16 µM
[25] = second compound 1 µM, first compound 10 µM
[26] = second compound 3.16 µM, first compound 0.316 µM
[27] = second compound 3.16 µM, first compound 1 µM
[28] = second compound 3.16 µM, first compound 3.16 µM
[29] = second compound 3.16 µM, first compound 10 µM
[30] = second compound 10 µM, first compound 0.0316 µM
[31] = second compound 10 µM, first compound 0.1 µM
[32] = second compound 10 µM, first compound 0.316 µM
[33] = second compound 10 µM, first compound 1 µM
[34] = second compound 10 µM, first compound 3.16 µM
[35] = second compound 10 µM, first compound 10 µM
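Also: cells exposed to agents for seven days before viability read.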
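For viability, T/C in this document: 100% = DMSO vehicle control wells and lower values mean fewer viable cells.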

CC(C)n1nc(-c2ccc3oc(N)nc3c2)c2c(N)ncnc21 + C=CC(=O)N1CCN(c2nc(OCC3CCCN3C)nc3c2CCN(c2cccc4cccc(C)c24)C3)CC1CC#N
IC50 (curve of first compound, second compound 0.0316 µM): > 100 nM
IC50 [1]: > 100 nM
IC50 [2]: > 100 nM
IC50 [3]: > 100 nM
IC50 [4]: 45.8 nM
viability, T/C (second compound 0.0316 µM, first compound 0.000316 µM): 88.4%
viability, T/C (second compound 0.0316 µM, first compound 0.001 µM): 143%
viability, T/C (second compound 0.0316 µM, first compound 0.00316 µM): 83%
viability, T/C (second compound 0.0316 µM, first compound 0.01 µM): 85.3%
viability, T/C (second compound 0.0316 µM, first compound 0.0316 µM): 63.2%
viability, T/C (second compound 0.0316 µM, first compound 0.1 µM): 57.4%
viability, T/C (second compound 0.1 µM, first compound 0.000316 µM): 95.8%
viability, T/C (second compound 0.1 µM, first compound 0.001 µM): 85.6%
viability, T/C (second compound 0.1 µM, first compound 0.00316 µM): 80.9%
viability, T/C (second compound 0.1 µM, first compound 0.01 µM): 62.8%
viability, T/C [5]: 63.2%
viability, T/C [6]: 55.6%
viability, T/C (second compound 0.316 µM, first compound 0.000316 µM): 85.9%
viability, T/C (second compound 0.316 µM, first compound 0.001 µM): 90.2%
viability, T/C (second compound 0.316 µM, first compound 0.00316 µM): 87.6%
viability, T/C (second compound 0.316 µM, first compound 0.01 µM): 62.9%
viability, T/C [7]: 56.4%
viability, T/C [8]: 52.8%
viability, T/C (second compound 1 µM, first compound 0.000316 µM): 82.8%
viability, T/C (second compound 1 µM, first compound 0.001 µM): 110%
viability, T/C (second compound 1 µM, first compound 0.00316 µM): 81.2%
viability, T/C (second compound 1 µM, first compound 0.01 µM): 70.9%
viability, T/C [9]: 65.5%
viability, T/C [10]: 70.1%
viability, T/C (second compound 3.16 µM, first compound 0.000316 µM): 72.6%
viability, T/C (second compound 3.16 µM, first compound 0.001 µM): 55.3%
viability, T/C (second compound 3.16 µM, first compound 0.00316 µM): 69.8%
viability, T/C (second compound 3.16 µM, first compound 0.01 µM): 75.6%
viability, T/C [11]: 65.8%
viability, T/C [12]: 16.1%

COc1cc(OC)cc(N(CCNC(C)C)c2ccc3ncc(-c4cnn(C)c4)nc3c2)c1
viability, T/C (compound 0.0316 µM): 76.3% [middle of 5 runs]
viability, T/C (compound 0.1 µM): 67.4% [middle of 5 runs]
viability, T/C (compound 0.316 µM): 67% [middle of 5 runs]

CCNC(=O)CC1N=C(c2ccc(Cl)cc2)c2cc(OC)ccc2-n2c(C)nnc21 (centres undefined) + CNCc1ccccc1-c1csc(C(C)Nc2nc(C)nc3cc(OC)c(OC)cc23)c1
IC50 [1]: > 10000 nM
IC50 [2]: > 10000 nM
IC50 [3]: > 10000 nM
IC50 [4]: < 31.6 nM
IC50 [13]: < 31.6 nM
viability, T/C [5]: 86.7%
viability, T/C [6]: 84.3%
viability, T/C [14]: 68.2%
viability, T/C [15]: 68.3%
viability, T/C [16]: 72.8%
viability, T/C [17]: 54.4%
viability, T/C [7]: 88.2%
viability, T/C [8]: 82.8%
viability, T/C [18]: 85.5%
viability, T/C [19]: 73.5%
viability, T/C [20]: 72.7%
viability, T/C [21]: 67.1%
viability, T/C [9]: 87.3%
viability, T/C [10]: 71.2%
viability, T/C [22]: 67.2%
viability, T/C [23]: 61%
viability, T/C [24]: 56.8%
viability, T/C [25]: 66.3%
viability, T/C [11]: 0.46%
viability, T/C [12]: 0.86%
viability, T/C [26]: 2.72%
viability, T/C [27]: 0.85%
viability, T/C [28]: 2.19%
viability, T/C [29]: 1.93%
viability, T/C [30]: 0.24%
viability, T/C [31]: 1.77%
viability, T/C [32]: 0.22%
viability, T/C [33]: 0.26%
viability, T/C [34]: 0.43%
viability, T/C [35]: 0.23%

CC(C)n1nc(-c2ccc3oc(N)nc3c2)c2c(N)ncnc21
viability, T/C (compound 0.000316 µM): 98.1% [middle of 5 runs]
viability, T/C (compound 0.001 µM): 86.1% [middle of 5 runs]
viability, T/C (compound 0.01 µM): 66.5% [middle of 5 runs]
viability, T/C (compound 0.0316 µM): 60.8% [middle of 5 runs]
viability, T/C (compound 0.1 µM): 59.6% [middle of 5 runs]
IC50 (curve of compound): > 100 nM

CC(C)NCC(C(=O)N1CCN(c2ncnc3c2C(C)CC3O)CC1)c1ccc(Cl)cc1 (centres undefined)
viability, T/C (compound 0.0316 µM): 91% [middle of 5 runs]
viability, T/C (compound 0.1 µM): 91.5% [middle of 5 runs]
viability, T/C (compound 0.316 µM): 79.8% [middle of 5 runs]
viability, T/C (compound 10 µM): 73.1% [middle of 5 runs]
IC50 (curve of compound): > 10000 nM

COC(=O)c1ccc2c(C(=Nc3ccc(N(C)C(=O)CN4CCN(C)CC4)cc3)c3ccccc3)c(O)[nH]c2c1 + CNCc1ccccc1-c1csc(C(C)Nc2nc(C)nc3cc(OC)c(OC)cc23)c1
IC50 [1]: > 10000 nM
IC50 [2]: > 10000 nM
IC50 [3]: 1140 nM
IC50 [4]: < 31.6 nM
IC50 [13]: < 31.6 nM
viability, T/C [5]: 95.9%
viability, T/C [6]: 80.5%
viability, T/C [14]: 87.7%
viability, T/C [15]: 70.1%
viability, T/C [16]: 87.7%
viability, T/C [17]: 70.1%
viability, T/C [7]: 95.5%
viability, T/C [8]: 91.7%
viability, T/C [18]: 71.4%
viability, T/C [19]: 74.5%
viability, T/C [20]: 70.4%
viability, T/C [21]: 74.5%
viability, T/C [9]: 59.4%
viability, T/C [10]: 58.5%
viability, T/C [22]: 56.5%
viability, T/C [23]: 54.6%
viability, T/C [24]: 12.1%
viability, T/C [25]: 14.6%
viability, T/C [11]: 2.33%
viability, T/C [12]: 4.5%
viability, T/C [26]: 7.73%
viability, T/C [27]: 3.3%
viability, T/C [28]: 9.99%
viability, T/C [29]: 5.4%
viability, T/C [30]: 3.64%
viability, T/C [31]: 3.36%
viability, T/C [32]: 4.73%
viability, T/C [33]: 6.01%
viability, T/C [34]: 1.8%
viability, T/C [35]: 0.53%
